Results published in patent US20220349887A1, “Compositions and Methods for Multiplex Detection of Microorganisms Using Peptide-Tagged Recombinant Infectious Agents” (priority 2021, published 2022).

How the values were obtained:
Assay in all cases: Antibiotic susceptibility testing in human blood: cefoxitin enrichment, then MP115.NL/SAPJV1.NL phage infection, luminescence
Format in all cases: cell-based
[1] = system: Methicillin-resistant Staphylococcus aureus (MRSA) ATCC BAA-1720; details: 41 CFU/Well
Description: (§1) Methicillin-resistant Staphylococcus aureus (MRSA) strains (ATCC BAA-1720, CDC AR0480) and the methicillin-susceptible Staphylococcus aureus (MSSA) strain (ATCC 12600) were grown to log phase (OD600 ranged from 0.16 to 0.4) in tryptic soy broth (TSB). Cultures were diluted in TSB to obtain the desired burden, which was confirmed by plating on TSB agar for colony forming units (CFU). 50 μL of each dilution was added to test strips. When indicated, some strips contained bound anti-NANOLUC® antibody on medium-binding plates for capture. 85 μL, of either TSB or human blood diluted with TSB and sodium polyanethole sulfonate (SPS) was added. Human blood was collected from a single donor using sodium heparin as an anti-coagulant. Each well then received 15 μL of either TSB or 22 μg/mL cefoxitin (FOX) in TSB. The final concentration of each component in the well (150 μL volume) was 25% human blood, 0.0375% SPS, and 2.2 μg/mL FOX. Test strips were then sealed with cover film and incubated at 37° C. for two hours. After this selective enrichment, 20 μL of phage working stock was added to wells containing the TSB matrix. Phage working stock contained 8×10^7 plaque forming units per mL (pfu/mL) of MP115.NL and 6.9×10^8 pfu/mL of SAPJV1.NL. For wells containing blood matrix, 0.5 mg of recombinant Staphylococcal protein A (pro-356, Prospec, Ness-Ziona, Israel) per well was included within the 20 μL of phage working stock. Assay strips were once again sealed with cover film and incubated at 37° C. for three hours. Following infection, anti-NanoLuc capture and controls strips were washed three times with 300 μL PBS-T (10 mM sodium phosphate, 150 mM NaCl, 0.05% Tween 20, pH 7.4). Washes were conducted using an automatic plate washer (AccuWash, Thermo Fisher Scientific, Waltham, Mass., USA). 100 μL of NanoGlo buffer (Promega, Madison, Wisc., USA) containing 1 μL of NanoGlo substrate (Promega, Madison, Wisc., USA) was added to each well. “No wash+No Capture” strips were not washed and instead received 65 μL of a master mix containing 50 μL NanoGlo Buffer, 15 μL TSB, and 1 μL NanoGlo substrate. Following a 3 minute wait period, the signal output of each sample as relative light units (RLU) was determined using a GloMax Navigator (Promega, Madison, Wisc., USA). Signal over background (SB) was calculated by dividing the RLU from each sample from the RLU observed in the media control for that test matrix (Table 2).

[2] = system: Methicillin-resistant Staphylococcus aureus (MRSA) CDC AR0480; details: 110 CFU/Well
Description: as §1

[3] = system: methicillin-susceptible Staphylococcus aureus (MSSA) ATCC 12600; details: 130 CFU/Well
Description: as §1

[4] = 5% BSA Blocked Strips, Blood + FOX 2.2 μg/mL
[5] = 5% BSA Blocked Strips, TSB + FOX 2.2 μg/mL
[6] = Anti-NanoLuc Capture Strips, Blood + FOX 2.2 μg/mL
[7] = Anti-NanoLuc Capture Strips, TSB + FOX 2.2 μg/mL
[8] = No Capture + No Wash, Blood + FOX 2.2 μg/mL
[9] = No Capture + No Wash, TSB + FOX 2.2 μg/mL

SMILES: CO[C@@]1(NC(=O)Cc2cccs2)C(=O)N2C(C(=O)O)=C(COC(N)=O)CS[C@@H]21 [FOX, cefoxitin]
- RLU [1, 4]: 12 RLU
- S/B [1, 4]: 2
- RLU [1, 5]: 20 RLU
- S/B [1, 5]: 3
- RLU [1, 6]: 63960 RLU
- S/B [1, 6]: 3998
- RLU [1, 7]: 79180 RLU
- S/B [1, 7]: 1028
- RLU [1, 8]: 9035 RLU
- S/B [1, 8]: 177
- RLU [1, 9]: 342000 RLU
- S/B [1, 9]: 447
- RLU [2, 4]: 3 RLU
- S/B [2, 4]: 0
- RLU [2, 5]: 53 RLU
- S/B [2, 5]: 7
- RLU [2, 6]: 6927 RLU
- S/B [2, 6]: 433
- RLU [2, 7]: 96650 RLU
- S/B [2, 7]: 1255
- RLU [2, 8]: 432 RLU
- S/B [2, 8]: 8
- RLU [2, 9]: 127000 RLU
- S/B [2, 9]: 166
- RLU [3, 4]: 10 RLU
- S/B [3, 4]: 1
- RLU [3, 5]: 6 RLU
- S/B [3, 5]: 1
- RLU [3, 6]: 18 RLU
- S/B [3, 6]: 1
- RLU [3, 7]: 80 RLU
- S/B [3, 7]: 1
- RLU [3, 8]: 103 RLU
- S/B [3, 8]: 2
- RLU [3, 9]: 988 RLU
- S/B [3, 9]: 1
